In general, inhibition refers to the drop in the measured response relative to a control, in per cent.

SMILES strings stand for the structures.

The target in one assay is T1, p38 (Homo sapiens, UniProt Q16539).
T1 construct: made in house
T1 sequence (Q16539 whole entry): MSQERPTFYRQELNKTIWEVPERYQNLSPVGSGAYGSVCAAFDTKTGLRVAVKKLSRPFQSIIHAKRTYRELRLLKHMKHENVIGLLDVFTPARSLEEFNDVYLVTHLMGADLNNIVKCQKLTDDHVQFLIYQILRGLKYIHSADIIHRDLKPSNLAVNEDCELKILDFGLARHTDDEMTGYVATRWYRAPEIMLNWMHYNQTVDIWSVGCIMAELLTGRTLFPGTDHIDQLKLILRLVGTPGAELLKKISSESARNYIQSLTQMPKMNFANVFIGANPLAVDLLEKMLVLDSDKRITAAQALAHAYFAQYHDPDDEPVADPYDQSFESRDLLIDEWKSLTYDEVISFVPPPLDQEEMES
The experiment in a line: Protein Kinase Assay (33P incorporation from γ-[33P]ATP into GST-ATF-2 substrate). Particulars: compound at 0.5 μM (noted beside the value in Table 1). Format: biochemical. As for the experimental part: Human non-activated p38 kinase (MW=43 kDa) was purified according to the protocol described herein. Chemicals were purchased from Calbiochem. Fluorescence characterizations were conducted using a Cary Eclipse (Varian Analytical Instruments, Walnut Creek, Calif.). Research-grade CM5 sensor chips and coupling reagents (N-ethyl-N′-dimethylaminopropylcarbodiimide (EDC) N-hydroxysuccinimide (NHS), and 1 M ethanolamine HCl, pH 8.5) were purchased from Biacore AB (Uppsala, Sweden). The biosensor analyses were conducted using a Biacore 3000 SPR instrument. The kinetic analyses were carried on a Molecular Devices spectrophotometer (Molecular Devices Corporation, CA, USA).
Protein Kinase Assay. The protein kinase activity of p38 was determined by measuring the incorporation of ^33P from γ-[^33P]ATP into the GST-ATF-2 substrate, amino acids 19-96 (Upstate, NY USA). […] Compounds were preincubated with 10 nM p38 for 20 min at 30° C.; the reactions were initiated by the addition of GST-ATF2 and ATP and incubated for 70 min at 30° C. before being stopped by the addition of 10 μL of 600 mM phosphoric acid. The phosphorylated substrate was captured on phosphocellulose 96-well plate (Millipore MAPHNOB 10), washed with 100 mM phosphoric acid, and counted in a BeckmenCoulter LS6500 liquid scintillation counter.
As to `CC(C)(C)c1cc(NC(=O)Nc2ccc3ccccc3c2)c(N2CCS(=O)(=O)CC2)s1` [Example 27, 1-[5-tert-butyl-2-(1,1-dioxo-1λ^6-thiomorpholin-4-yl)thiophen-3-yl]-3-naphthalen-2-ylurea], the inhibition at 0.5 µM was 51 to 76%.

Staying with this assay, now noted: compound at 10 μM.
`CC(C)(C)c1cc(C(=O)N2CCS(=O)(=O)CC2)c(NC(=O)Nc2ccc(Cl)cc2)s1` [Example 1, 1-[5-tert-butyl-3-(1,1-dioxo-1λ^6-thiomorpholine-4-carbonyl)thiophen-2-yl]-3-(4-chlorophenyl)urea] gave an inhibition at 10 µM of 76 to 100%.

Compound `CC(C)(C)c1cc(C(=O)N2CCS(=O)(=O)CC2)c(NC(=O)Nc2cccc3ccccc23)s1` [Example 2, 1-[5-tert-butyl-3-(1,1-dioxo-1λ^6-thiomorpholine-4-carbonyl)thiophen-2-yl]-3-naphthalen-1-ylurea] had an inhibition at 10 µM of 76 to 100%.

`CC(C)(C)c1cc(CN2CCS(=O)(=O)CC2)c(NC(=O)Nc2ccc(Cl)cc2)s1` [Example 3, 1-[5-tert-butyl-3-(1,1-dioxo-1λ^6-thiomorpholin-4-ylmethyl)thiophen-2-yl]-3-(4-chlorophenyl)urea] returned an inhibition at 10 µM of 76 to 100%.

In the case of `CC(C)(C)c1cc(C(=O)N2CCS(=O)(=O)CC2)c(NC(=O)Nc2ccc3ccccc3c2)s1` [Example 4, 1-[5-tert-butyl-3-(1,1-dioxo-1λ^6-thiomorpholine-4-carbonyl)thiophen-2-yl]-3-naphthalen-2-ylurea], the inhibition at 10 µM fell in the range of 76 to 100%.

For the compound `CC(C)(C)c1cc(CN2CCS(=O)(=O)CC2)c(NC(=O)Nc2cccc3ccccc23)s1` [Example 5, 1-[5-tert-butyl-3-(1,1-dioxo-1λ^6-thiomorpholin-4-ylmethyl)thiophen-2-yl]-3-naphthalen-1-ylurea], the inhibition at 10 µM was 76 to 100%.

`CC(C)(C)c1cc(CN2CCS(=O)(=O)CC2)c(NC(=O)Nc2ccc3ccccc3c2)s1` [Example 6, 1-[5-tert-butyl-3-(1,1-dioxo-1λ^6-thiomorpholin-4-ylmethyl)thiophen-2-yl]-3-naphthalen-2-ylurea] had an inhibition at 10 µM of 76 to 100%.

With `CC(C)(C)c1cc(NC(=O)Nc2ccc(Cl)cc2)n(CC(=O)N2CCS(=O)(=O)CC2)n1` [Example 7, 1-{5-tert-butyl-2-[2-(1,1-dioxo-1λ^6-thiomorpholin-4-yl)-2-oxoethyl]-2H-pyrazol-3-yl}-3-(4-chlorophenyl)urea], the inhibition at 10 µM was 51 to 75%.

In turn, `CC(C)(C)c1cc(NC(=O)Nc2cccc3ccccc23)n(CC(=O)N2CCS(=O)(=O)CC2)n1` [Example 9, 1-{5-tert-butyl-2-[2-(1,1-dioxo-1λ^6-thiomorpholin-4-yl)-2-oxoethyl]-2H-pyrazol-3-yl}-3-naphthalen-1-ylurea] displayed an inhibition at 10 µM of 51 to 75%.

For `CC(C)(C)c1cc(NC(=O)Nc2ccc(Cl)cc2)c(C(=O)N2CCS(=O)(=O)CC2)s1` [Example 10, 1-[5-tert-butyl-2-(1,1-dioxo-1λ^6-thiomorpholine-4-carbonyl)thiophen-3-yl]-3-(4-chlorophenyl)urea], the inhibition at 10 µM is 76 to 100%.

In turn, `CC(C)(C)c1cc(NC(=O)Nc2cccc3ccccc23)c(C(=O)N2CCS(=O)(=O)CC2)s1` [Example 11, 1-[5-tert-butyl-2-(1,1-dioxo-1λ^6-thiomorpholine-4-carbonyl)thiophen-3-yl]-3-naphthalen-1-ylurea] gave an inhibition at 10 µM of 76 to 100%.

For `CC(C)(C)c1cc(NC(=O)Nc2ccc3ccccc3c2)c(C(=O)N2CCS(=O)(=O)CC2)s1` [Example 12, 1-[5-tert-butyl-2-(1,1-dioxo-1λ^6-thiomorpholine-4-carbonyl)thiophen-3-yl]-3-naphthalen-2-ylurea], the inhibition at 10 µM is 76 to 100%.

The compound `CC(C)(C)c1cc(NC(=O)Nc2ccc3ccccc3c2)c(CN2CCS(=O)(=O)CC2)s1` [Example 13, 1-[5-tert-butyl-2-(1,1-dioxo-1λ^6-thiomorpholin-4-ylmethyl)thiophen-3-yl]-3-naphthalen-2-ylurea] registered an inhibition at 10 µM of 26 to 50%.

The compound `CC(C)(C)c1cc(NC(=O)Nc2cccc3ccccc23)c(CN2CCS(=O)(=O)CC2)s1` [Example 14, 1-[5-tert-butyl-2-(1,1-dioxo-1λ^6-thiomorpholin-4-ylmethyl)thiophen-3-yl]-3-naphthalen-1-ylurea] gave an inhibition at 10 µM of 0 to 25%.

In turn, `CC(C)(C)c1cc(NC(=O)Nc2ccc(Cl)cc2)c(CN2CCS(=O)(=O)CC2)s1` [Example 15, 1-[5-tert-butyl-2-(1,1-dioxo-1λ^6-thiomorpholin-4-ylmethyl)thiophen-3-yl]-3-(4-chlorophenyl)urea] showed an inhibition at 10 µM of 51 to 75%.

Take `CC(C)(C)c1cc(C(=O)N2CCOCC2)c(NC(=O)Nc2cccc3ccccc23)s1` [Example 16, 1-[5-tert-butyl-3-(morpholine-4-carbonyl)thiophen-2-yl]-3-naphthalen-1-yl-urea]: the inhibition at 10 µM fell in the range of 26 to 50%.

In turn, `CC(C)(C)c1cc(NC(=O)Nc2ccc(Cl)cc2)n(C(=O)N2CCS(=O)(=O)CC2)n1` [Example 17, 1-[5-tert-butyl-2-(1,1-dioxo-1λ^6-thiomorpholine-4-carbonyl)-2H-pyrazol-3-yl]-3-(4-chlorophenyl)urea] came in with an inhibition at 10 µM of 76 to 100%.

For the compound `CC(C)(C)c1cc(C(=O)N2CCSCC2)c(NC(=O)Nc2cccc3ccccc23)s1` [Example 18, 1-[5-tert-butyl-3-(thiomorpholine-4-carbonyl)thiophen-2-yl]-3-naphthalen-1-ylurea], the inhibition at 10 µM fell in the range of 51 to 75%.

`CC(C)(C)c1cc(CN2CCOCC2)c(NC(=O)Nc2cccc3ccccc23)s1` [Example 19, 1-(5-tert-butyl-3-morpholin-4-ylmethylthiophen-2-yl)-3-naphthalen-1-ylurea]: the inhibition at 10 µM was in the range of 51 to 75%.

For `CC(C)(C)c1cc(CN2CCSCC2)c(NC(=O)Nc2cccc3ccccc23)s1` [Example 20, 1-(5-tert-butyl-3-thiomorpholin-4-ylmethylthiophen-2-yl)-3-naphthalen-1-yl-urea], the inhibition at 10 µM lay in the range of 0 to 25%.

Compound `CC(C)(C)c1cc(NC(=O)Nc2cccc3ccccc23)n(C(=O)N2CCS(=O)(=O)CC2)n1` [Example 21, 1-[5-tert-butyl-2-(1,1-dioxo-1λ^6-thiomorpholine-4-carbonyl)-2H-pyrazol-3-yl]-3-naphthalen-1-ylurea] had an inhibition at 10 µM of 76 to 100%.

On to `CC(C)(C)c1cc(C(=O)N2CC[S+]([O-])CC2)c(NC(=O)Nc2cccc3ccccc23)s1` [Example 22, 1-[5-tert-butyl-3-(1-oxo-1λ^4-thiomorpholine-4-carbonyl)thiophen-2-yl]-3-naphthalen-1-ylurea], for which the inhibition at 10 µM lay in the range of 26 to 50%.

As for `CC(C)(C)c1cc(NC(=O)Nc2ccc3ccccc3c2)n(C(=O)N2CCS(=O)(=O)CC2)n1` [Example 23, 1-[5-tert-butyl-2-(1,1-dioxo-1λ^6-thiomorpholine-4-carbonyl)-2H-pyrazol-3-yl]-3-naphthalen-2-ylurea], the inhibition at 10 µM lay within 26 to 50%.

As to `CC(C)(C)c1nc(C(=O)N2CCS(=O)(=O)CC2)c(NC(=O)Nc2cccc3ccccc23)s1` [Example 25, 1-[2-tert-butyl-4-(1,1-dioxo-1λ^6-thiomorpholine-4-carbonyl)thiazol-5-yl]-3-naphthalen-1-ylurea], the inhibition at 10 µM lay within 76 to 100%.

Take `CC(C)(C)c1nc(C(=O)N2CCS(=O)(=O)CC2)c(NC(=O)Nc2ccc3ccccc3c2)s1` [Example 26, 1-[2-tert-butyl-4-(1,1-dioxo-1λ^6-thiomorpholine-4-carbonyl)thiazol-5-yl]-3-naphthalen-2-ylurea]: the inhibition at 10 µM fell in the range of 51 to 75%.

These data come from US7741479B2, “Urea inhibitors of MAP kinases” (Locus Pharmaceuticals, Inc., priority 2004, dated 2010).
